In brackets after ≈: the same amount, converted by molar mass. Activity calls are given as the source filed them. No cut-off for these calls is given here.
Tests used:
[1] = system: MCF7; assay: Induction of cell cycle arrest in human MCF7 cells assessed as cdc25c activation at 5 to 25 nM incubated for 24 hrs by Western blotting analysis; assay type: functional, cell-based; conditions: dose 5-25 nM
[2] = Toxicity in Balb/c mouse xenografted with human MCF7 cells assessed as pathological changes in heart at 5 to 20 mg/kg, ip administered for every 2 days for 21 days by hematoxylin and eosin staining based analysis; assay type: organism-based; conditions: in vivo, 504 h, dose 5-20 mg/kg, time 21 day
[3] = system: MCF7; assay: Induction of apoptosis in human MCF7 cells assessed as upregulation of BaX protein expression at 5 to 20 nM measured after 24 hrs by Western blot analysis; assay type: functional, cell-based; conditions: dose 5-20 nM
[4] = system: MCF7; assay: Induction of cell cycle arrest in human MCF7 cells assessed as upregulation of Bcl2 phosphorylation at […] at 5 to 20 nM measured after 24 hrs by Western blot analysis; assay type: functional, cell-based; conditions: dose 5-20 nM
[5] = system: MCF7; assay: Induction of ROS generation in human MCF7 cells assessed as increase in intracellular ROS level measured after 12 hrs by DCFH-DA staining based assay; assay type: functional, cell-based; conditions: dose 5-20 nM
[6] = system: MCF7; assay: Induction of cell cycle arrest in human MCF7 cells assessed as arrest in G2/M phase by measuring accumulation of p21 at 5 to 25 nM incubated for 24 hrs by Western blotting analysis; assay type: functional, cell-based; conditions: dose 5-25 nM
[7] = system: HUVEC; assay: Inhibition of angiogenesis in HUVEC cells assessed as broken tubular network at 5 nM after 6 hrs by phase contrast microscopy; assay type: functional, cell-based; conditions: Homo sapiens
[8] = system: MCF7; assay: Antitumor activity against human MCF7 cells xenografted in Balb/c mouse assessed as decrease in CD31-positive tumor cells in tumor at 20 mg/kg, ip administered for every 2 days for 21 days; assay type: functional, organism-based; conditions: time 2.0 day
[9] = Toxicity in Balb/c mouse xenografted with human MCF7 cells assessed as pathological changes in kidney at 5 to 20 mg/kg, ip administered for every 2 days for 21 days by hematoxylin and eosin staining based analysis; assay type: organism-based; conditions: in vivo, 504 h, dose 5-20 mg/kg, time 21 day
[10] = Toxicity in Balb/c mouse xenografted with human MCF7 cells assessed as pathological changes in lung at 5 to 20 mg/kg, ip administered for every 2 days for 21 days by hematoxylin and eosin staining based analysis; assay type: organism-based; conditions: in vivo, 504 h, dose 5-20 mg/kg, time 21 day
[11] = molecular target: T1, Tubulin (Sus scrofa, UniProt P02554+P02550); assay: Inhibition of porcine brain tubulin assessed as changes in the fluorescence intensity measured for 60 mins by cell free tubulin polymerization assay
[12] = system: MCF7; assay: Induction of apoptosis in human MCF7 cells assessed as upregulation of p-Bim L protein expression at 5 to 20 nM measured after 24 hrs by Western blot analysis; assay type: functional, cell-based; conditions: dose 5-20 nM
[13] = system: MCF7; assay: Induction of cell cycle arrest in human MCF7 cells assessed as mitosis by measuring accumulation of histone H3 ser10 phosphorylation incubated for 24 hrs by Western blotting analysis; assay type: functional, cell-based; conditions: dose 5-25 nM
[14] = system: MCF7; assay: Induction of cell cycle arrest in human MCF7 cells assessed as accumulation of cells at G2/M phase at 10 nM measured after 24 hrs by flow cytometry relative to control; assay type: functional
[15] = Metabolic stability in human liver microsomes assessed as intrinsic clearance at 1 uM by LC/MS analysis; assay type: ADME, Microsome; conditions: read-out: CLH
[16] = system: HT-29; assay: Antiproliferative activity against human HT-29 cells measured after 72 hrs by MTT assay; assay type: functional, cell-based; conditions: HT-29, 72 h
[17] = Antiproliferative activity against paclitaxel-resistant human MCF7/TxR cells measured after 72 hrs by MTT assay; assay type: functional, cell-based
[18] = molecular target: ATP-dependent translocase ABCB1 (Homo sapiens, UniProt P08183); assay: Substrate activity at P-glycoprotein in paclitaxel-resistant human MCF/TxR cells assessed as intracellular Rhodamine-123 content at 10 uM incubated for 12 hrs by confocal microscopy; assay type: cell-based; conditions: mcf7/txr
[19] = molecular target: Tubulin (Homo sapiens) (UniProt P68371+Q9H4B7+P0DPH7+P68366+Q13509+Q71U36+P04350+Q3ZCM7+P07437+P68363+Q9BQE3+Q6PEY2+Q13885+Q9BVA1+Q9BUF5); assay: Inhibition of [3H]colchicine binding to tubulin (unknown origin) at 5 uM by competition scintillation proximity assay relative to control; assay type: protein-complex assay
[20] = Metabolic stability in human liver microsomes assessed as half life at 1 uM by LC/MS analysis; assay type: ADME, Microsome
[21] = system: MCF7; assay: cells; conditions: Homo sapiens, MCF7, 72 h
Description: Antiproliferative activity against human MCF7 cells measured after 72 hrs by MTT assay

[22] = system: MCF7; assay: Induction of cell cycle arrest in human MCF7 cells assessed as arrest in G2/M phase by measuring accumulation of cyclin B1 at 5 to 25 nM incubated for 24 hrs by Western blotting analysis; assay type: functional, cell-based; conditions: dose 5-25 nM
[23] = system: MCF7; assay: Induction of mitochondria transmembrane potential loss in human MCF7 cells measured after 12 hrs by JC1 dye based assay; assay type: functional; conditions: dose 5-20 nM
[24] = system: MCF7; assay: Induction of cell cycle arrest in human MCF7 cells assessed as mitosis by measuring accumulation of histone H3 ser10 phosphorylation incubated for 24 hrs by immunofluorescence assay; assay type: functional, cell-based; conditions: dose 5-25 nM
[25] = Antiproliferative activity against paclitaxel-resistant human A549/TxR cells measured after 72 hrs by MTT assay; assay type: functional, cell-based
[26] = system: MCF7; assay: Antitumor activity against human MCF7 cells xenografted in Balb/c mouse assessed as tumor growth inhibition at 5 mg/kg, ip administered for every 2 days for 21 days; assay type: functional; conditions: MCF7, 504 h, time 21 day, read-out: TGI
[27] = molecular target: T1, Tubulin; assay: Binding affinity to porcine brain tubulin assessed as changes in the fluorescence incubated for 10 mins tryptophan-based binding assay
[28] = system: MCF7; assay: Induction of apoptosis in human MCF7 cells assessed as upregulation of cleaved Caspase 3 at 5 to 20 nM measured after 24 hrs by Western blot analysis; assay type: functional, cell-based; conditions: dose 5-20 nM
[29] = system: K562; assay: cells; conditions: Homo sapiens, K562, 72 h
Description: Antiproliferative activity against human K562 cells measured after 72 hrs by MTT assay

[30] = system: HUVEC; assay: Inhibition of angiogenesis in HUVEC cells assessed as reduction in capillary tube formation after 6 hrs by phase contrast microscopy; assay type: functional, cell-based; conditions: Homo sapiens, dose 1.25-5 nM
[31] = Toxicity in Balb/c mouse xenografted with human MCF7 cells assessed as pathological changes in spleen at 5 to 20 mg/kg, ip administered for every 2 days for 21 days by hematoxylin and eosin staining based analysis; assay type: organism-based; conditions: in vivo, 504 h, dose 5-20 mg/kg, time 21 day
[32] = system: MCF7; assay: Induction of cell cycle arrest in human MCF7 cells assessed as accumulation of cells at G2/M phase at 20 nM measured after 24 hrs by flow cytometry relative to control; assay type: functional
[33] = system: MCF7; assay: Antitumor activity against human MCF7 cells xenografted in Balb/c mouse assessed as decrease in Ki67-positive tumor cells in tumor at 20 mg/kg, ip administered for every 2 days for 21 days; assay type: functional, organism-based; conditions: time 2.0 day
[34] = Toxicity in Balb/c mouse xenografted with human MCF7 cells assessed as pathological changes in liver at 5 to 20 mg/kg, ip administered for every 2 days for 21 days by hematoxylin and eosin staining based analysis; assay type: organism-based; conditions: in vivo, 504 h, dose 5-20 mg/kg, time 21 day
[35] = system: MCF7; assay: Antitumor activity against human MCF7 cells xenografted in Balb/c mouse assessed as tumor growth inhibition at 20 mg/kg, ip administered for every 2 days for 21 days; assay type: functional; conditions: MCF7, 504 h, time 21 day, read-out: TGI
[36] = Toxicity in Balb/c mouse xenografted with human MCF7 cells assessed as body weight loss at 5 to 20 mg/kg, ip administered for every 2 days for 21 days; assay type: organism-based; conditions: in vivo, 48 h, dose 5-20 mg/kg, time 2 day
[37] = Aqueous solubility in pH 7.4 PBS buffer by HPLC-UV analysis; assay type: physicochemical

ATP-dependent translocase ABCB1, sequence (P08183 whole entry): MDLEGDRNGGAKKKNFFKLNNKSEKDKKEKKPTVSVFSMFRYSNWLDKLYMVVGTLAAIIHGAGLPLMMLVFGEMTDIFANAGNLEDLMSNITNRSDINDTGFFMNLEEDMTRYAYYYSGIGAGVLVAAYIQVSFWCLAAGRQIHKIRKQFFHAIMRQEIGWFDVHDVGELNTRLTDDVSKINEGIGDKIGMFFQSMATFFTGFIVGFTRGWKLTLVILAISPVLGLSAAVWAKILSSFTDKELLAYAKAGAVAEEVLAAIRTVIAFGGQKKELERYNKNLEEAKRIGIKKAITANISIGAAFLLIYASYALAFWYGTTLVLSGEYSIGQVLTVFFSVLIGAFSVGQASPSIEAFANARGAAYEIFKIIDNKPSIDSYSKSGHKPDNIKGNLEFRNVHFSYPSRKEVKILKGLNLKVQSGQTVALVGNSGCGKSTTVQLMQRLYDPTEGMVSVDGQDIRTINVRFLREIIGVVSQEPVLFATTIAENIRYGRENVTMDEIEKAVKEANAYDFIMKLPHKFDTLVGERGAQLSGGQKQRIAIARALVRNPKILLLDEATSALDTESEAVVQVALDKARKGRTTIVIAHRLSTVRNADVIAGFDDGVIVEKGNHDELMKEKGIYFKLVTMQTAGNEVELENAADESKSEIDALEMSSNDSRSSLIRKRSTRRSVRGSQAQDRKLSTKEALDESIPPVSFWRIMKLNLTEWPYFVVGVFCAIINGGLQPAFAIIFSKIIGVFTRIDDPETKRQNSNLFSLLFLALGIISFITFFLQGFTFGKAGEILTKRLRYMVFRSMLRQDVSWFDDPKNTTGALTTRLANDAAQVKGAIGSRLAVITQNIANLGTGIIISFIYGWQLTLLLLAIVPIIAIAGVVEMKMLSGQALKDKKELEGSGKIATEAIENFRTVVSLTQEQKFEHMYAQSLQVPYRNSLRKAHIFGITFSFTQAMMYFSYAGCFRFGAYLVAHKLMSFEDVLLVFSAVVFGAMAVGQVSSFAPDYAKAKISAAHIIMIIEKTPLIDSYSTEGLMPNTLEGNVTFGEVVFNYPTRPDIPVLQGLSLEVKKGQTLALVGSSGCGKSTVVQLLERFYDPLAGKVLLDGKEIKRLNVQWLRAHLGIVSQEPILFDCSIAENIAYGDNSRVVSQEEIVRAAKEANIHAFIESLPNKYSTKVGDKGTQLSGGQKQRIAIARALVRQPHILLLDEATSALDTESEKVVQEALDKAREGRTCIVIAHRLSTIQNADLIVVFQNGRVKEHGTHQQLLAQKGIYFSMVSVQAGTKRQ

Row | Structure (SMILES) | Activity [1] | Activity [2] | Activity [3] | Activity [4] | Activity [5] | Activity [6] | Activity [7] | Activity [8] | Activity [9] | Activity [10] | IC50 [11] [nM] | Activity [12] | Activity [13] | Activity [14] [%] | CLint scaled at 1 µM [15] [mL/min/kg] | IC50 [16] [nM] | IC50 [17] [nM] | Activity [18] | inhibition [19] [%] | half-life at 1 µM [20] [min] | other results
1 | COc1c(Cl)cc([C@@H]2c3cc4c(cc3C[C@H]3C(=O)NC(=O)N23)OCCO4)cc1Cl | Active | Non-Toxic | Active | Active | Dose-Dependent Effect | Active | Dose-Dependent Effect | Active | Non-Toxic | Non-Toxic | 2520 | Active | Dose-Dependent Effect | 16 | 66.7 | 8.3 | 7.8 | Not Active | 88.7 | 26.1 | IC50 [21]: 9.2 nM; Activity [22]: Active; Activity [23]: Dose-Dependent Effect; Activity [24]: Dose-Dependent Effect; IC50 [25]: 5.2 nM; inhibition in vivo at 5 mg/kg [26]: 41%; Kd [27]: 4490 nM; Activity [28]: Active; IC50 [29]: 6.3 nM; Activity [30]: Dose-Dependent Effect; Activity [31]: Non-Toxic; Activity [32]: 16%; Activity [33]: Active; Activity [34]: Non-Toxic; inhibition in vivo at 20 mg/kg [35]: 85.1%; Activity [36]: Non-Toxic; solubility [37]: 2.85 µg/mL (≈ 6.55 µM)
2 | COc1c(Br)cc([C@@H]2c3cc4c(cc3C[C@H]3C(=O)NC(=O)N23)OCCO4)cc1Br | Active | Non-Toxic | Active | Active | Dose-Dependent Effect | Active | Dose-Dependent Effect | Active | Non-Toxic | Non-Toxic | 2310 | Active | Dose-Dependent Effect | 16 | 167 | 4.4 | 5.2 | Not Active | 84.6 | 10.4 | IC50 [21]: 3.5 nM; Activity [22]: Active; Activity [23]: Dose-Dependent Effect; Activity [24]: Dose-Dependent Effect; IC50 [25]: 7.9 nM; inhibition in vivo at 5 mg/kg [26]: 20.8%; Kd [27]: 1700 nM; Activity [28]: Active; IC50 [29]: 5.3 nM; Activity [30]: Dose-Dependent Effect; Activity [31]: Non-Toxic; Activity [32]: 16%; Activity [33]: Active; Activity [34]: Non-Toxic; inhibition in vivo at 20 mg/kg [35]: 78.9%; Activity [36]: Non-Toxic; solubility [37]: < 0.5 µg/mL

From ChEMBL document CHEMBL5236615, “Discovery of Novel N-Heterocyclic-Fused Deoxypodophyllotoxin Analogues as Tubulin Polymerization Inhibitors Targeting the Colchicine-Binding Site for Cancer Treatment” (J Med Chem, 2022)
